The record followed here is ChEMBL document CHEMBL5331046, “Disulfiram and dithiocarbamate analogues demonstrate promising antischistosomal effects” (Eur J Med Chem, 2022).

Data set [1] relates to Schistosoma mansoni. The data set can be described thus: Antischistosomal activity against Schistosoma mansoni couples assessed as reduction in pairing stability at 100 uM measured upto 72 hrs by bright field microscopy. The class given is functional.
The subject of data set [2] is Schistosoma mansoni. The data set can be described thus: Antischistosomal activity against Schistosoma mansoni couples assessed as eggs deformation at 100 uM measured upto 72 hrs by bright field microscopy. The format is functional.
Data set [3] has as its system Schistosoma mansoni. The data set can be described thus: Antischistosomal activity against Schistosoma mansoni couples assessed as decrease in parasite motility at 100 uM measured upto 72 hrs by bright field microscopy. On the set-up: scale not given: the % may be the effect or the level left. The class given is functional.
Data set [4] relates to Schistosoma mansoni. The data set can be described thus: Antischistosomal activity against Schistosoma mansoni couples assessed as tegument damage at 100 uM measured upto 72 hrs by bright field microscopy. The format is functional, organism-based.
In data set [5] the test system is Schistosoma mansoni. Briefly: Antischistosomal activity against Schistosoma mansoni couples assessed as tegument damage at <=50 uM measured upto 72 hrs by bright field microscopy. The format is functional, organism-based.
The test system of data set [6] is Schistosoma mansoni. Briefly: Antischistosomal activity against Schistosoma mansoni couples assessed as reduction in parasite motility at <=50 uM measured upto 72 hrs by bright field microscopy. The format is functional, organism-based.
For data set [7], the system named is Schistosoma mansoni. Briefly: Antischistosomal activity against Schistosoma mansoni couples assessed as detachment of worms from culture dish at 100 uM measured upto 72 hrs by bright field microscopy. The class given is functional, organism-based.
Data set [8] relates to Schistosoma mansoni. Briefly: Antischistosomal activity against Schistosoma mansoni couples assessed as decrease in parasite motility at 50 uM measured upto 72 hrs by bright field microscopy. The format is functional.
Data set [9] relates to Schistosoma mansoni. The data set can be described thus: Antischistosomal activity against Schistosoma mansoni couples assessed as pairing instability at 50 uM measured upto 72 hrs by bright field microscopy. The class given is functional.
For data set [10], the system named is Schistosoma mansoni. The data set can be described thus: Antischistosomal activity against Schistosoma mansoni couples assessed as tegument damage upto 100 uM measured upto 72 hrs by bright field microscopy. The class given is functional, organism-based.
Data set [11] deals with HepG2. Briefly: Cytotoxicity against human HepG2 cells assessed as reduction in cell viability upto 100 uM by WST-1 assay. The class given is toxicity, cell-based. The settings on record: hepg2, 100 µM. In general terms: Tetrazolium assays rely on reduction of a dye to a coloured formazan, in cell work by metabolically active cells.
Data set [12] relates to LS174T. Briefly: Cytotoxicity against human LS174T cells assessed as reduction in cell vaibility upto 100 uM by WST-1 assay. The class given is toxicity, cell-based.
Data set [13] has as its system Schistosoma mansoni. Briefly: Antischistosomal activity against Schistosoma mansoni couples assessed as inhibition of eggs production at 50 uM measured upto 72 hrs by bright field microscopy. The class given is functional, organism-based.
For data set [14], the system named is Schistosoma mansoni. The data set can be described thus: Antischistosomal activity against Schistosoma mansoni couples assessed as reduction in pairing stability at 50 uM measured upto 72 hrs by bright field microscopy. The format is functional, organism-based.
In data set [15] the test system is Schistosoma mansoni. Briefly: Antischistosomal activity against Schistosoma mansoni couples assessed as reduction in pairing stability at 25 uM measured upto 72 hrs by bright field microscopy. The class given is functional.
Data set [16] has as its system Schistosoma mansoni. The data set can be described thus: Antischistosomal activity against Schistosoma mansoni couples assessed as inhibition of eggs production at 25 uM measured upto 72 hrs by bright field microscopy. The class given is functional.
Data set [17] concerns Schistosoma mansoni. Briefly: Antischistosomal activity against Schistosoma mansoni couples assessed as decrease in parasite motility at 10 uM measured upto 72 hrs by bright field microscopy. The class given is functional, organism-based.
The test system of data set [18] is Schistosoma mansoni. Briefly: Antischistosomal activity against Schistosoma mansoni couples assessed as decrease in pairing stability at 5 uM measured upto 72 hrs by bright field microscopy. The class given is functional.
Data set [19] deals with Schistosoma mansoni. The data set can be described thus: Antischistosomal activity against Schistosoma mansoni couples assessed as decrease in parasite vitality at 5 uM measured upto 72 hrs by bright field microscopy. The format is functional, organism-based.
The subject of data set [20] is Schistosoma mansoni. Briefly: Antischistosomal activity against Schistosoma mansoni couples assessed as inhibition of eggs production at 5 uM measured upto 72 hrs by bright field microscopy. The class given is functional.
Data set [21] deals with Schistosoma mansoni. The data set can be described thus: Antischistosomal activity against Schistosoma mansoni couples assessed as gut dilations at 50 uM measured upto 72 hrs by bright field microscopy. The class given is functional, organism-based.
Data set [22] relates to Schistosoma mansoni. Briefly: Antischistosomal activity against Schistosoma mansoni couples assessed as tegument damage at 50 uM measured upto 72 hrs by bright field microscopy. The class given is functional, organism-based.
In data set [23] the test system is Schistosoma mansoni. The data set can be described thus: Antischistosomal activity against Schistosoma mansoni couples assessed as intestinal dilations and tegument damage at 50 uM measured upto 72 hrs by bright field microscopy. The class given is functional, organism-based.
Data set [24] relates to Schistosoma mansoni. Briefly: Antischistosomal activity against Schistosoma mansoni couples assessed as gut dilations at 25 uM measured upto 72 hrs by bright field microscopy. The class given is functional, organism-based.
The test system of data set [25] is Schistosoma mansoni. The data set can be described thus: Antischistosomal activity against Schistosoma mansoni couples assessed as tegument damage at 25 uM measured upto 72 hrs by bright field microscopy. The class given is functional, organism-based.
Data set [26] concerns Schistosoma mansoni. Briefly: Antischistosomal activity against Schistosoma mansoni couples assessed as intestinal dilations and tegument damage at 25 uM measured upto 72 hrs by bright field microscopy. The class given is functional, organism-based.
Data set [27] concerns HepG2. Briefly: Cytotoxicity against human HepG2 cells assessed as reduction in cell vaibility at 100 uM by WST-1 assay. The format is toxicity, cell-based. Particulars: hepg2, 100 µM.
Data set [28] relates to LS174T. The data set can be described thus: Cytotoxicity against human LS174T cells assessed as reduction in cell viability at 100 uM by WST-1 assay. The class given is toxicity, cell-based.
Data set [29] relates to Schistosoma mansoni. The data set can be described thus: Antischistosomal activity against Schistosoma mansoni couples assessed as gut dilations at 100 uM measured upto 72 hrs by bright field microscopy. The format is functional, organism-based.
Data set [30] relates to Schistosoma mansoni. The data set can be described thus: Antischistosomal activity against Schistosoma mansoni couples assessed as decrease in parasite motility at 25 uM measured upto 72 hrs by bright field microscopy. The class given is functional. Details: scale not given: the % may be the effect or the level left.
For data set [31], the system named is Schistosoma mansoni. The data set can be described thus: Antischistosomal activity against Schistosoma mansoni couples at 100 uM measured upto 72 hrs by bright field microscopy. The class given is functional, organism-based.
Data set [32] concerns Schistosoma mansoni. Briefly: Antischistosomal activity against Schistosoma mansoni couples assessed as decrease in parasite vitality at 10 uM measured upto 72 hrs by bright field microscopy. The format is functional.
In data set [33] the test system is Schistosoma mansoni. Briefly: Antischistosomal activity against Schistosoma mansoni couples assessed as dead worms at 25 uM measured upto 72 hrs by bright field microscopy. The format is functional.
The test system of data set [34] is Schistosoma mansoni. The data set can be described thus: Antischistosomal activity against Schistosoma mansoni couples assessed as edematous swelling of gut at 25 uM measured upto 72 hrs by bright field microscopy. The class given is functional, organism-based.
Data set [35] deals with Schistosoma mansoni. The data set can be described thus: Antischistosomal activity against Schistosoma mansoni couples assessed as inhibition of eggs production at 10 uM measured upto 72 hrs by bright field microscopy. The class given is functional, organism-based.
The subject of data set [36] is Schistosoma mansoni. The data set can be described thus: Antischistosomal activity against Schistosoma mansoni couples assessed as reduction in pairing stability at 10 uM measured upto 72 hrs by bright field microscopy. The class given is functional, organism-based.
Data set [37] relates to HepG2. The data set can be described thus: Cytotoxicity against human HepG2 cells assessed as reduction in cell vaibility at 25 uM by WST-1 assay. The class given is toxicity, cell-based. The settings on record: hepg2, 25 µM.
Data set [38] relates to LS174T. The data set can be described thus: Cytotoxicity against human LS174T cells assessed as reduction in cell vaibility at 25 uM by WST-1 assay. The class given is toxicity, cell-based.
In data set [39] the test system is Schistosoma mansoni. Briefly: Antischistosomal activity against Schistosoma mansoni couples at 25 uM measured upto 72 hrs by bright field microscopy. The class given is functional, organism-based.
The test system of data set [40] is Schistosoma mansoni. Briefly: Antischistosomal activity against Schistosoma mansoni couples at 10 uM measured upto 72 hrs by bright field microscopy. The format is functional, organism-based.

The source made the active and inactive calls. The calls are words filed in the database; no cut-off is given here. A value given as a limit tells only on which side of the number the result lay.

Regarding `CCCN(CCC)C(=S)SCc1ccccc1`, the outcome in the data set on Schistosoma mansoni [1], in the data set with Schistosoma mansoni [2] and with Schistosoma mansoni [4] was Active. In the data set on Schistosoma mansoni [3], the Activity is reported as about 40%. In addition, the outcome with Schistosoma mansoni [5] and in the data set with Schistosoma mansoni [6] was inactive.

As for `S=C(SCc1ccccc1)N1CCSC1`, the outcome in the data set with Schistosoma mansoni [7] was Active.

`CCN(CC)C(=S)SCCC1SCCCS1`: the result in the data set on Schistosoma mansoni [8] and in the data set on Schistosoma mansoni [10] was Active. In addition, the Activity is given as under 40% with Schistosoma mansoni [3], 0% in the data set with Schistosoma mansoni [9], “Non-Toxic” in the data set on HepG2 [11] and “Non-Toxic” with LS174T [12].

On to `CCN(CC)C(=S)SCc1ccc([N+](=O)[O-])cc1`, for which the result in the data set on Schistosoma mansoni [13], with Schistosoma mansoni [14], in the data set with Schistosoma mansoni [15], with Schistosoma mansoni [16], in the data set on Schistosoma mansoni [17] and in the data set on Schistosoma mansoni [18] was Active. Besides, the result in the data set on Schistosoma mansoni [19], in the data set on Schistosoma mansoni [20], with Schistosoma mansoni [21], in the data set with Schistosoma mansoni [22], in the data set with Schistosoma mansoni [23] and in the data set on Schistosoma mansoni [24] was Active. The result in the data set on Schistosoma mansoni [25] and with Schistosoma mansoni [26] was Active.

As to `S=C(SCc1ccccc1)N1CCSCC1`, the Activity with Schistosoma mansoni [8] is about 45%; in the data set with Schistosoma mansoni [3], 45%; with HepG2 [27], “Non-Toxic”; in the data set with LS174T [28] it was “Non-Toxic”. Besides, the result with Schistosoma mansoni [29], in the data set on Schistosoma mansoni [21] and with Schistosoma mansoni [7] was Active.

Regarding `Cl.O=C([C@@H]1CCCN1)N1CCN(C(=S)SCc2ccc([N+](=O)[O-])cc2)CC1`, the Activity in the data set with Schistosoma mansoni [30] is reported as 65%; with HepG2 [27], “Toxic”; in the data set with LS174T [28], “Toxic”; in the data set with Schistosoma mansoni [18], about 80%; in the data set on Schistosoma mansoni [20] it was about 80%; with Schistosoma mansoni [33] it was “<=25%”. Moreover, the Activity entry in the data set on HepG2 [37] and with LS174T [38] was “Toxic” throughout. Moreover, the outcome with Schistosoma mansoni [31], in the data set on Schistosoma mansoni [32], with Schistosoma mansoni [34], in the data set with Schistosoma mansoni [35] and in the data set on Schistosoma mansoni [36] was Active. Moreover, in the data set with Schistosoma mansoni [17], the outcome was inactive.

`O=[N+]([O-])c1ccc(CSC(=S)N2CCN(CCO)CC2)cc1`: the outcome with Schistosoma mansoni [31] and in the data set with Schistosoma mansoni [39] was Active. Further, the result with Schistosoma mansoni [40] was inactive.
